Assay results from patent US20140221490A1, “METHODS OF TREATING PAIN” (Hospira, Inc., priority 2011, published 2014).
“And” between values parts separate entries of the source, which are not always exact repeats. Equal entries are not always repeated. “Also recorded” adds a separate entry of the source.

Assays:
[1] = test system: patients after orthopedic surgery; assay: Orthopedic surgery trial: safety (adverse events); type: in vivo, human
Description: (§1) The diclofenac formulation was Dyloject™. […] Adverse events (adverse effects) were recorded between surgery and randomization, not just after baseline, in order to distinguish treatment-emergent adverse events.
Those who remained at the site longer assessed their pain every 3 hours until discharged. […] Adverse events (AEs) were recorded between surgery and randomization, not just after baseline, in order to distinguish treatment-emergent AEs.

[2] = test system: acute moderate to severe pain after orthopedic surgery; assay: Multiple-dose randomized double-blind active- and placebo-controlled trial after orthopedic surgery: efficacy (SPID, pain relief, rescue morphine, patient global evaluation); type: in vivo, human
Description: Patients were randomly assigned to diclofenac, ketorolac, or placebo (2:1:1 ratio).
Randomization was stratified by risk group at baseline. The groups were high-risk, non-high-risk, or higher-weight, which was greater than 210 lbs., or 95 kg. Randomization was also stratified by anticipated stay between a long stay, which was longer than 24 hours, versus a shorter stay. The high-risk patients weighed less than 110 lbs.
as §1
Patients were encouraged to wait at least 30 minutes after study drug initiation to request morphine.
Patients assessed their pain at baseline and at specified time points through the next 24 hours. Those who remained at the site longer assessed their pain every three hours until discharged. Patients returned for follow-up 5-9 days after baseline, and they received a follow-up telephone call 30-37 days after baseline.
Efficacy analyses were conducted using Statistical Analysis Software®, and unless otherwise noted refer to the intent-to-treat population. The analysis of area under the pain intensity difference curve, pain intensity difference, area under the pain relief curve, patient global evaluation, and amount of rescue medication were based on analysis of covariance (ANCOVA) models, with treatment and center as factors and baseline pain as a covariate. Confidence intervals were based on the pooled standard deviation obtained from an ANCOVA model. Treatment differences were tested with linear contrasts.
All testing of statistical significance was 2-sided unless the test performed was inherently 1-sided. […] The area under the pain relief curve was analyzed similarly.
The proportion of patients attaining at least 30% reduction in pain intensity and the frequency of rescue medication use were analyzed with Cochran-Mantel-Haenszel tests, with center as a stratification variable.
For area under the curve calculations, evaluations after the administration of rescue medication or after withdrawal due to adverse events (adverse effects) or lack of efficacy were imputed in accordance with prespecified rules. For post hoc analyses of pain intensity, an even more conservative and simplified set of imputation rules was applied.
This was a multicenter, multiple-dose, multiple-day, randomized, double-blind, active- and placebo-controlled, parallel-group study.
Assignments were made according to a computer-generated random-number code. Randomization was also stratified by risk cohort (high-risk, non-high-risk, or high-weight [≧95 kg]) at baseline (see FIG. 10), and by anticipated long stay (>24 hours) versus shorter stay, resulting in six strata within the randomization schedule.
Patients in all treatment groups received a bolus IV injection every 6 hours until discharge. […] All study drugs were blinded to the investigator and the patient; dose levels of the individual study treatments were not blinded.
Patients were encouraged to wait at least 30 minutes after study drug initiation to request morphine, to allow primary study drug to begin to exert analgesic effects but were never denied.
The primary efficacy measure was the sum of pain intensity differences (SPID) over five intervals: 0-24, 0-48, 0-72, 0-96, and 0-120 hours which was calculated by summing the difference in pain intensity (by a 0-100 visual analog scale) from baseline at designated timepoints.

[3] = cited from earlier work
[4] = test system: patients after abdominal or pelvic surgery; assay: Abdominal or pelvic surgery trial: safety (adverse events, thrombophlebitis scale); type: in vivo, human
Description: Patients returned for a safety follow-up 5-9 days after baseline, and received a follow-up telephone call 30 days post-baseline. Safety assessments included physical examinations, laboratory testing, vital signs, 12-lead ECG, and evaluation of thrombophlebitis at the site of study drug injection using a 6-point scale (Table 5 and FIG. 6). AEs were recorded throughout the study.
The proportion of patients reporting ≧30% reduction from baseline in pain intensity was analyzed with the Cochran-Mantel-Haenszel test with center as a stratification variable. Time to meaningful (≧30%) reduction in pain intensity and time to administration of rescue medication were analyzed with Kaplan-Meier survival analysis techniques. Descriptive statistics were used for AEs, laboratory test results, vital signs, thrombophlebitis, and ECG results. Logistic regression was used to estimate the relative risk of cardiovascular events.

[5] = diclofenac n = 145, ketorolac n = 60

O=C(c1ccccc1)c1ccc2n1CCC2C(=O)O (stereo not shown) [Ketorolac, ketorolac tromethamine]
Acute Renal Failure/Renal Insufficiency [1, 5]: 0 n (%)
Acute Tubular Necrosis [1, 5]: 0 n (%)
Anemia [1, 5]: 9 (15.0%) n (%)
Blood creatine phosphokinase (CPK) increase [1, 5]: 8 (13.3%) n (%)
Constipation [1, 5]: 6 (10.0%) n (%)
Contusion [1, 5]: 2 (3.3%) n (%)
Dizziness [1, 5]: 5 (8.3%) n (%)
Dysuria (burning, difficulty urinating) [1, 5]: 1 (1.7%) n (%)
Epistaxis [1, 5]: 0 n (%)
Fever/increase body temp. [1, 5]: 5 (8.3%) n (%)
Nausea [1, 5]: 18 (30.0%) n (%)
Total Bleeding related adverse events [1, 5]: 13 (21.7%) n (%)
Total GI-Related Adverse Events [1, 5]: 24 (40.0%) n (%)
Total Renal-Related Adverse Events [1, 5]: 1 (1.7%) n (%)
Urinary Retention [1, 5]: 0 n (%)
Vomiting [1, 5]: 6 (10.0%) n (%)
incidence of bleeding-related adverse effects ([1]; in vivo): 23% and 22%
serious cardiovascular event: congestive heart failure ([1]; one of 60 patients, not considered treatment-related): 1.7%
total pain relief vs placebo ([2]; 0-24, 0-48, 0-72, 0-96, 0-120 hours, P<0.0001): significantly better
mean sum of pain intensity differences (SPID) vs placebo ([2]; all time intervals 0-24 to 0-120 hours, P<0.0001): significantly better; also recorded: significantly greater
patients rating their drug as “very good” or “excellent” (patient global evaluation) ([2]; at last assessment): 57.6%
SPID scores vs placebo, higher-weight group ([2]; diclofenac 50 mg, ketorolac 30 mg, all time intervals, P<0.05): better with both diclofenac 50 mg and ketorolac 30 mg compared with placebo
patients achieving clinically meaningful pain reduction (≧30% reduction in intensity) ([2]; dose by risk cohort, IV every 6 hours): 75%
amount of morphine used ([2]; elderly patients, low dose (diclofenac 18.75 mg, ketorolac 15 mg)): 14.9 mg
median time from administration of study drug to administration of rescue medication ([2]; human, in vivo): 137.0 min and 137 min
time at which pain intensity difference first significantly differed from placebo (onset of analgesia) ([2]; human, in vivo): 30 min
total rescue morphine requirement ([2]; over the first five days): 18.1 mg
Vd, volume of distribution [3]: 0.21 L/kg
Prot. bind., drug fraction bound to protein (fP) ([3]; plasma): 99%
Cmax ([3]; read-out: Cmax, maximum drug concentration in plasma, based on the drug's pharmacokinetics and administration of a normal drug dose): 1800 nM
incidence of bleeding-related AEs ([4]; 30 mg): 6.1%
incidence of cardiovascular AEs ([4]; 30 mg): 6.1%
incidence of treatment-related AEs ([4]; 30 mg): 23.2%
Abdominal Hematoma ([4]; 30 mg (n = 82)): 1 (1.2%) n (%)
Bleeding-related AE: Anemia ([4]; 30 mg (n = 82)): 2 (2.4%) n (%)
Blood Creatine phosphokinase (CPK) increased ([4]; 30 mg (n = 82)): 12 (14.6%) n (%)
Constipation ([4]; 30 mg (n = 82)): 8 (9.8%) n (%)
Diarrhea ([4]; 30 mg (n = 82)): 6 (7.3%) n (%)
Flatulence ([4]; 30 mg (n = 82)): 22 (26.8%) n (%)
Headache ([4]; 30 mg (n = 82)): 14 (17.1%) n (%)
Hematoma ([4]; 30 mg (n = 82)): 0 (0.0%) n (%)
Incision site complication ([4]; 30 mg (n = 82)): 0 (0.0%) n (%)
Injection site pain, irritation ([4]; 30 mg (n = 82)): 17 (20.7%) n (%)
Insomnia ([4]; 30 mg (n = 82)): 7 (8.5%) n (%)
Nausea ([4]; 30 mg (n = 82)): 22 (26.8%) n (%)
Number of patients experiencing ≧1 AE ([4]; 30 mg (n = 82)): 72 (87.8%) n (%)
Pruritus ([4]; 30 mg (n = 82)): 3 (3.7%) n (%)
Pyrexia ([4]; 30 mg (n = 82)): 9 (11.0%) n (%)
Rectal Hemorrhage ([4]; 30 mg (n = 82)): 1 (1.2%) n (%)
Tachycardia ([4]; 30 mg (n = 82)): 4 (4.9%) n (%)
Thrombophlebitis ([4]; 30 mg (n = 82)): 6 (7.3%) n (%)
Total patients with a Bleeding-Related AE ([4]; 30 mg (n = 82)): 5 (6.1%) n (%)
Vaginal Hemorrhage ([4]; 30 mg (n = 82)): 0 (0.0%) n (%)
Vomiting ([4]; 30 mg (n = 82)): 7 (8.5%) n (%)
Wound complication ([4]; 30 mg (n = 82)): 1 (1.2%) n (%)
Wound dehiscence ([4]; 30 mg (n = 82)): 1 (1.2%) n (%)
Total Patients on Concomitant Anticoagulants with a Bleeding-Related AE ([4]; 30 mg, 49 on anticoagulants): 3 (6.1%) n (%)
subjects reporting ≧1 bleeding-related AE among subjects receiving anticoagulants ([4]; ketorolac group (3/49), post hoc analysis): 6.1%
